For this assay, the target named is T1, PD-1/PD-L1 (Homo sapiens, UniProt Q9NZQ7).
T1 construct: Recombinant human PD-L1 protein (19-238) with a His-tag at the C-terminus; purchased AcroBiosystems PD1-H5229 (PD-L1); PD1-H5257 (PD-1)
T1 sequence (Q9NZQ7 19-238): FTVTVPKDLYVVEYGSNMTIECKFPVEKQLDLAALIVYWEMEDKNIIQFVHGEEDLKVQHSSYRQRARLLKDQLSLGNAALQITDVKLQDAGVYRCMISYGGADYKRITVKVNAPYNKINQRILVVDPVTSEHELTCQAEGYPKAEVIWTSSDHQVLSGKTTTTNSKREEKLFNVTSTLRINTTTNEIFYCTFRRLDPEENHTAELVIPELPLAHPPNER
Briefly: PD-1/PD-L1 Homogeneous Time-Resolved Fluorescence (HTRF) binding assay. The conditions noted are these: recombinant human PD-L1 (19-238)-His 10 nM, human PD-1 (25-167)-Fc 3 nM, 25° C., PBS pH 7.4. On the procedure:
Example A. PD-1/PD-L1 Homogeneous Time-Resolved Fluorescence (HTRF) Binding Assay
The assays were conducted in a standard black 384-well polystyrene plate with a final volume of 20 μL. Inhibitors were first serially diluted in DMSO and then added to the plate wells before the addition of other reaction components. The final concentration of DMSO in the assay was 1%. The assays were carried out at 25° C. in the PBS buffer (pH 7.4) with 0.05% Tween-20 and 0.1% BSA. Recombinant human PD-L1 protein (19-238) with a His-tag at the C-terminus was purchased from AcroBiosystems (PD1-H5229). Recombinant human PD-1 protein (25-167) with Fc tag at the C-terminus was also purchased from AcroBiosystems (PD1-H5257). PD-L1 and PD-1 proteins were diluted in the assay buffer and 10 μL was added to the plate well. Plates were centrifuged and proteins were preincubated with inhibitors for 40 minutes. The incubation was followed by the addition of 10 μL of HTRF detection buffer supplemented with Europium cryptate-labeled anti-human IgG (PerkinElmer-AD0212) specific for Fc and anti-His antibody conjugated to SureLight®-Allophycocyanin (APC, PerkinElmer-AD0059H). After centrifugation, the plate was incubated at 25° C. for 60 min. before reading on a PHERAstar FS plate reader (665 nm/620 nm ratio). Final concentrations in the assay were—3 nM PD1, 10 nM PD-L1, 1 nM europium anti-human IgG and 20 nM anti-His-Allophycocyanin. IC50 determination was performed by fitting the curve of percent control activity versus the log of the inhibitor concentration using the GraphPad Prism 5.0 software.
(In TR-FRET formats the signal depends on donor and acceptor labels being close together.)
Regarding `Cc1c(Oc2ncnc3c(CNCCO)csc23)cccc1-c1ccccc1` [Example 1, 2-((4-(2-methylbiphenyl-3-yloxy)thieno[3,2-d]pyrimidin-7-yl)methylamino)ethanol], the IC50 lay in the range of 10 to 100 nM.
In the case of `Cc1c(-c2ccccc2)cccc1-c1cnn(C[C@@H]2CCCN2)c1` [Example 2, 4-(2-methylbiphenyl-3-yl)-1-[(2S)-pyrrolidin-2-ylmethyl]-1H-pyrazole] it was 10 to 100 nM; in that of `COc1cccc(-c2cccc(Nc3nccc(CNCCO)c3F)c2Cl)c1F` [Example 3, 2-((2-(2-chloro-2′-fluoro-3′-methoxybiphenyl-3-ylamino)-3-fluoropyridin-4-yl)methylamino)ethanol], not above 10 nM.
In the case of `Cc1c(-c2ccccc2)cccc1-c1ccc2nc(CN3CCCC[C@H]3C(=O)O)cc(C)c2c1` [Example 4, (S)-1-((4-methyl-6-(2-methylbiphenyl-3-yl)quinolin-2-yl)methyl)piperidine-2-carboxylic acid] it was 10 to 100 nM.
In the case of `Cc1c(-c2ccccc2)cccc1-c1ccc2c(c1)CNC2` [Example 5, 5-(2-methylbiphenyl-3-yl)isoindoline] it was 10 to 100 nM; in that of `NCc1ccc(-c2cccc(-c3ccccc3)c2Cl)cn1` [Example 6, (5-(2-chlorobiphenyl-3-yl)pyridin-2-yl)methanamine], 10 to 100 nM; in that of `Cc1c(-c2ccccc2)cccc1-c1ccc(CNCCO)cc1` [Example 7, 2-{[(2′-methyl-1,1′:3′,1″-terphenyl-4-yl)methyl]amino}ethanol], 10 to 100 nM.
With `Cc1c(/C=C/c2ccc(CN3CCCC[C@@H]3C(=O)O)cn2)cccc1-c1ccccc1` [Example 8, (R,E)-1-((6-(2-(2-methyl-[1,1′-biphenyl]-3-yl)vinyl)pyridin-3-yl)methyl)piperidine-2-carboxylic acid], the IC50 lay within 10 to 100 nM.
In the case of `COc1cccc(-c2cccc(Nc3nccn4c(CNCCO)cnc34)c2C)c1F` [Example 9, 2-(((8-((2′-fluoro-3′-methoxy-2-methyl-[1,1′-biphenyl]-3-yl)amino)imidazo[1,2-a]pyrazin-3-yl)methyl)amino)ethan-1-ol] it was 10 to 100 nM.
With `Cc1cc(CN2CCCC[C@H]2C(=O)O)ccc1OC1CCc2c(-c3ccccc3)cccc21` (stereo partly drawn) [Example 10, (2S)-1-(3-methyl-4-(4-phenyl-2,3-dihydro-1H-inden-1-yloxy)benzyl)piperidine-2-carboxylic acid], the IC50 was 100 to 1000 nM.
In the case of `Cc1c(NC(=O)c2cccn3c(CN4CCCC[C@H]4C(=O)O)cnc23)cccc1-c1ccccc1` [Example 11, (S)-1-((8-(2-methylbiphenyl-3-ylcarbamoyl)imidazo[1,2-a]pyridin-3-yl)methyl)piperidine-2-carboxylic acid] it was 100 to 1000 nM; in that of `O=C(Nc1ccc2cnc(-c3ccccc3)cc2c1Cl)c1ccc(CNCCO)cn1` [Example 12, N-(5-chloro-3-phenylisoquinolin-6-yl)-5-((2-hydroxyethylamino)methyl) picolinamide], 100 to 1000 nM.
On to `Cc1c(-c2ccccc2)cccc1-c1ccc2c(c1)CCNC2` [Example 13, 6-(2-methylbiphenyl-3-yl)-1,2,3,4-tetrahydroisoquinoline], for which the IC50 lay within 10 to 100 nM.
In the case of `Cc1c(-c2ccccc2)cccc1N1CCc2cc(CNCCO)ccc2C1` [Example 14, 2-((2-(2-methylbiphenyl-3-yl)-1,2,3,4-tetrahydroisoquinolin-6-yl)methylamino)ethanol] it was 100 to 1000 nM; in that of `Cc1c(Nc2ccc3c(c2)CCNC3)cccc1-c1ccccc1` [Example 15, N-(2-methylbiphenyl-3-yl)-1,2,3,4-tetrahydroisoquinolin-6-amine], 100 to 1000 nM; in that of `Cc1c(-c2ccccc2)cccc1-c1ccc2c(c1)CCC(CN(C)C)O2` (stereo not shown) [Example 16, N,N-dimethyl-1-(6-(2-methylbiphenyl-3-yl)chroman-2-yl)methanamine], 100 to 1000 nM.
In the case of `Cc1c(-c2ccccc2)cccc1-c1cnc2c(c1)CNC2` [Example 17, 3-(2-methylbiphenyl-3-yl)-6,7-dihydro-5H-pyrrolo[3,4-b]pyridine] it was 100 to 1000 nM.
In the case of `Cc1c(Nc2ccc3c(c2)CCN(C(CO)CO)C3)cccc1-c1ccccc1` [Example 18, 2-(6-(2-methylbiphenyl-3-ylamino)-3,4-dihydroisoquinolin-2(1H)-yl)propane-1,3-diol] it was 100 to 1000 nM; in that of `Cc1c(-c2ccccc2)cccc1N1Cc2ccc(CNCCO)cc2C1` [Example 19, 2-((2-(2-methylbiphenyl-3-yl)isoindolin-5-yl)methylamino)ethanol], 100 to 1000 nM.
As to `Cc1c(-c2ccccc2)cccc1-c1cnc2c(c1)CNCC2` [Example 20, 3-(2-methylbiphenyl-3-yl)-5,6,7,8-tetrahydro-1,6-naphthyridine], the IC50 lay in the range of 100 to 1000 nM.
In the case of `Cc1c(-c2ccccc2)ccnc1-c1ccc(CN)cc1` [Example 21, (4-(3-methyl-4-phenylpyridin-2-yl)phenyl)methanamine] it was 100 to 1000 nM; in that of `O[C@H]1CC[C@@H](NCc2ccc(N3CCCC(c4ccccc4)C3)cn2)CC1` (stereo partly drawn) [Example 22, Cis-4-((5-(3-phenylpiperidin-1-yl)pyridin-2-yl)methylamino)cyclohexanol], 100 to 1000 nM; in that of `OCC1(CNC2CCN(c3cccc(Nc4ccccc4)c3Cl)CC2)CCC1` [Example 23, (1-((1-(2-chloro-3-(phenylamino)phenyl)piperidin-4-ylamino)methyl)cyclobutyl)methanol], 1000 to 2000 nM.
Turning to `OCC1(CNC2CCN(c3cccc(NCc4ccccc4)c3Cl)CC2)CCC1` [Example 24, (1-((1-(3-(benzylamino)-2-chlorophenyl)piperidin-4-ylamino)methyl)cyclobutyl)methanol], the IC50 is 100 to 1000 nM.
Consider `Cc1c(Nc2nsc3nccnc23)cccc1-c1ccccc1` [Example 25, N-(2-methylbiphenyl-3-yl)isothiazolo[4,5-b]pyrazin-3-amine], for which the IC50 lay in the range of 100 to 1000 nM.
In the case of `Cc1c(-c2ccccc2)cccc1N1CCC[C@@H](N)C1` [Example 26, (R)-1-(2-methylbiphenyl-3-yl)piperidin-3-amine] it was 100 to 1000 nM; in that of `Cc1c(-c2ccccc2)cccc1N1CCC(CN)CC1` [Example 27, (1-(2-methylbiphenyl-3-yl)piperidin-4-yl)methanamine], 100 to 1000 nM; in that of `Cc1c(NCC2CCCNC2)cccc1-c1ccccc1` (stereo not shown) [Example 28, 2-methyl-N-(piperidin-3-ylmethyl)biphenyl-3-amine], 1000 to 2000 nM.
Consider `Cc1c(-c2ccccc2)cccc1N1CC[C@H](CN)C1` [Example 29, (R)-(1-(2-methylbiphenyl-3-yl)pyrrolidin-3-yl)methanamine], for which the IC50 was 1000 to 2000 nM.
In the case of `Cc1c(-c2ccccc2)cccc1N1CCC2(CCCC(=O)N2)CC1` [Example 30, 9-(2-methylbiphenyl-3-yl)-1,9-diazaspiro[5.5]undecan-2-one] it was 100 to 1000 nM.
For `Cc1c(-c2ccccc2)cccc1N1CCC2(CCCCN2)CC1` [Example 31, 9-(2-methylbiphenyl-3-yl)-1,9-diazaspiro[5.5]undecane], the IC50 is 100 to 1000 nM.
Turning to `Cc1c(C2=CCC(N3CCCC3)CC2)cccc1-c1ccccc1` (stereo not shown) [Example 32, 1-(4-(2-methylbiphenyl-3-yl)cyclohex-3-enyl)pyrrolidine], the IC50 is 100 to 1000 nM.
In the case of `Cc1c(NC(=O)N2CCCC(N)C2)cccc1-c1ccccc1` (stereo not shown) [Example 33, 3-amino-N-(2-methylbiphenyl-3-yl)piperidine-1-carboxamide] it was 1000 to 2000 nM; in that of `N#Cc1c(-c2ccccc2)csc1Nc1nccc2cc(CNCCO)cnc12` [Example 34, 2-[(3-{[(2-hydroxyethyl)amino]methyl}-1,7-naphthyridin-8-yl)amino]-4-phenylthiophene-3-carbonitrile], 100 to 1000 nM.
As to `Cc1c(-c2nc3c(s2)CN(C(=O)CN(C)C)C3)cccc1-c1cccc(-c2nc3c(s2)CN(C(=O)CN2CC[C@@H](O)C2)C3)c1C` [Example 35, (R)-2-(dimethylamino)-1-(2-(3′-(5-(2-(3-hydroxypyrrolidin-1-yl)acetyl)-5,6-dihydro-4H-pyrrolo[3,4-d]thiazol-2-yl)-2,2′-dimethylbiphenyl-3-yl)-4H-pyrrolo[3,4-d]thiazol-5(6H)-yl)ethanone], the IC50 is not above 10 nM.
For the molecule `CCN(C)CC(=O)N1Cc2nc(-c3cccc(-c4cccc(C#CC5CCNCC5)c4C)c3C)sc2C1` [Example 36, 1-(2-(2,2′-dimethyl-3′-(piperidin-4-ylethynyl)biphenyl-3-yl)-4H-pyrrolo[3,4-d]thiazol-5(6H)-yl)-2-(ethyl(methyl)amino)ethanone], the IC50 is not above 10 nM.
In the case of `CCN(C)CC(=O)N1Cc2nc(-c3cccc(-c4cccc(N5CCC6NCCC6C5)c4C)c3C)sc2C1` (stereo not shown) [Example 37, 1-(2-(2,2′-dimethyl-3′-(tetrahydro-1H-pyrrolo[3,2-c]pyridin-5(6H,7H,7aH)-yl)biphenyl-3-yl)-4H-pyrrolo[3,4-d]thiazol-5(6H)-yl)-2-(ethyl(methyl)amino)ethanone] it was 100 to 1000 nM.

Broadly, the IC50 is the concentration at which inhibition is half-maximal.

(Values after patent US20230226062A1, “HETEROCYCLIC COMPOUNDS AS IMMUNOMODULATORS” (Incyte Corporation, priority 2016, published 2023).)
